Test: mn = molality of the nth substance listed, in mol/kg
Conditions: 101 kPa, Liquid; for speed of sound: Sing-around technique in a fixed-path interferometer; for molar conductivity: digital conductivity meter

O=P([O-])([O-])[O-].[Na+].[Na+].[Na+] [trisodium phosphate] + O
Conditions	mass density, 283.15 K [kg/m3]	mass density, 288.15 K [kg/m3]	molar conductivity, 283.15 K [S·m2/mol]	molar conductivity, 288.15 K [S·m2/mol]	molar conductivity, 293.15 K [S·m2/mol]	speed of sound, 283.15 K [m/s]	speed of sound, 288.15 K [m/s]	speed of sound, 293.15 K [m/s]
m1 = 0.0026	–	–	0.0382	0.0395	0.0406	–	–	–
m1 = 0.0039	–	–	0.0361	0.0369	0.0379	–	–	–
m1 = 0.0053	–	–	0.0348	0.0363	0.038	–	–	–
m1 = 0.0089	1001.51	1000.88	–	–	–	1450.7	1469	1485.1
m1 = 0.0105	1001.84	1001.2	0.0306	0.0325	0.0342	1451.2	1469.5	1485.6
m1 = 0.0116	1002.06	1001.42	–	–	–	1451.5	1469.8	1486
m1 = 0.0132	1002.38	1001.74	0.0293	0.0318	0.0333	1452	1470.2	1486.3
m1 = 0.0183	1003.44	1002.77	0.0275	0.0292	0.0309	1453.4	1471.6	1487.7
m1 = 0.0234	1004.45	1003.77	0.0259	0.0281	0.0297	1455	1473.1	1489.2
m1 = 0.0342	1006.62	1005.91	0.0234	0.0253	0.0264	1457.8	1475.8	1491.8
m1 = 0.045	1008.77	1008.04	0.0218	0.0236	0.0249	1460.7	1478.6	1494.5
m1 = 0.0563	1011	1010.23	0.0211	0.0223	0.0236	1463.6	1481.5	1497.3
m1 = 0.0662	1012.94	1012.15	0.0197	0.0216	0.0227	1466.1	1483.9	1499.7
m1 = 0.0767	–	–	0.0192	0.021	0.0218	–	–	–
m1 = 0.088	1017.25	1016.4	0.0186	0.0199	0.0209	1471.7	1489.3	1504.9
m1 = 0.0968	1018.97	1018.1	0.0179	0.0196	–	1473.9	1491.5	1507
m1 = 0.1086	1021.25	1020.35	0.0178	0.0191	–	1476.8	1494.3	1509.7
m1 = 0.1133	1022.18	1021.28	0.0173	0.0188	–	1477.9	1495.4	1510.8
m1 = 0.1296	1025.36	1024.4	0.0166	0.0181	–	1482	1499.3	1514.6
m1 = 0.141	1027.58	1026.61	0.0161	0.0175	–	1484.8	1502.1	1517.3
m1 = 0.1515	1029.56	1028.56	0.0158	0.0174	–	1487.3	1504.5	1519.7
m1 = 0.1638	1031.95	1030.93	0.0159	0.0174	–	1490.3	1507.4	1522.5
m1 = 0.1755	1034.17	1033.12	0.0155	0.0168	–	1493.1	1510.1	1525.2
m1 = 0.1868	1036.39	1035.32	0.0153	0.0165	–	1496	1512.9	1527.8
m1 = 0.1954	1037.96	1036.87	0.0154	0.0162	–	1498	1514.8	1529.7
m1 = 0.2224	1043.23	1042.08	0.0145	0.0153	–	1504.6	1521.3	1536
m1 = 0.2333	1045.32	1044.14	0.0143	0.0152	–	1507.2	1523.9	1538.5
m1 = 0.2509	1048.59	1047.38	0.0142	0.015	–	1511.4	1527.9	1542.4
